We go through 22 compounds from patent US7709482B2, “Polycyclic heteroaryl substituted triazoles useful as Axl inhibitors” (Rigel Pharmaceuticals, Inc., priority 2006, dated 2010).

In general, IC50 refers to the concentration that gives 50% inhibition.

One experiment deals with T1, Axl (Homo sapiens, UniProt P30530).
T1 construct: endogenous in cells; host or cells: HeLa cells
T1 sequence (P30530 26-894): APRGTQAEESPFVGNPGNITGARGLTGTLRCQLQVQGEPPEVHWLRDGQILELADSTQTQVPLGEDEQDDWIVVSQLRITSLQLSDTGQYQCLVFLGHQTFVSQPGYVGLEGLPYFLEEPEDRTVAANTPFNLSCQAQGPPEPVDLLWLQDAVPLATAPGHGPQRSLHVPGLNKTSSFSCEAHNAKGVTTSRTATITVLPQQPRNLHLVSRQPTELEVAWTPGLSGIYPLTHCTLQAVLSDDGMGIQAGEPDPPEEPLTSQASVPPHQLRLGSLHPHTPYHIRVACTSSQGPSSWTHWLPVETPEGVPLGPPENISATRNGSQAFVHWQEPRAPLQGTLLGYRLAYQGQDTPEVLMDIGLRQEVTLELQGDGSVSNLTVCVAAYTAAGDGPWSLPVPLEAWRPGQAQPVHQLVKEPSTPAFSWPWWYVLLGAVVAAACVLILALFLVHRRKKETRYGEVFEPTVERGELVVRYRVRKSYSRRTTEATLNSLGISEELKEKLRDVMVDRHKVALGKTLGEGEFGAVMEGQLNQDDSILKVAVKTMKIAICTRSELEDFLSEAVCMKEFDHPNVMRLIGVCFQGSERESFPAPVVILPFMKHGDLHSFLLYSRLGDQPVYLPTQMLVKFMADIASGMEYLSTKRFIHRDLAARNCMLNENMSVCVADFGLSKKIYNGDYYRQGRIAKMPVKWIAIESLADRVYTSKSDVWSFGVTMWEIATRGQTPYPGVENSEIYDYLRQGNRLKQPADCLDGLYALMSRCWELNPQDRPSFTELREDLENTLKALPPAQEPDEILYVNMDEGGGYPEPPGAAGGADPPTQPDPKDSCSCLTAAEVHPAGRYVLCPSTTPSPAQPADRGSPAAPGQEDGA
The experiment is described as follows: Phospho-Akt In-Cell Western Assay (inhibition of Axl activity after Axl-antibody cross-linking). In kind it is cell-based. The conditions noted are these: Hela cells, phospho-Akt chemiluminescence normalized to relative cell number; compounds of formula (Ia), Table 1; read-out: IC50. A digest of the protocol:
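HeLa cells on poly-L-lysine, starved 24 h in 0.5% FCS DMEM with Axl/Fc 500 ng/mL, pre-treated with compound 1 h at 37 °C, then stimulated 5 min by anti-Axl/anti-mouse antibody cross-linking. Fixed cells probed for phospho-Akt with HRP secondary and chemiluminescent detection.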
`CC1CN(C2CCCC2)CCN1c1ccc(Nc2nc(N)n(-c3cc4c(nn3)-c3ccccc3CCC4)n2)cc1` (stereo not shown) [Compound 16, 1-(6,7-dihydro-5H-benzo[6,7]cyclohepta[1,2-c]pyridazin-3-yl)-N^3-(4-(4-cyclopentyl-2-methylpiperazin-1-yl)phenyl)-1H-1,2,4-triazole-3,5-diamine]: the IC50 was less than 1000 nM.
For the compound `COc1cc2c(c(OC)c1OC)-c1nnc(-n3nc(Nc4ccc(N5CCC(N6CCCC6)CC5)c(F)c4)nc3N)cc1CCC2` [Compound 65, 1-(6,7-dihydro-5H-9,10,11-trimethoxybenzo[6,7]cyclo-hepta[1,2-c]pyridazin-3-yl)-N^3-(3-fluoro-4-(4-pyrrolidin-1-yl-piperidin-1-yl)phenyl)-1H-1,2,4-triazole-3,5-diamine], the IC50 was less than 1000 nM.
Regarding `Nc1nc(Nc2cnc3c(c2)CCN(C2CCCC2)CC3)nn1-c1cc2c(nn1)-c1ccccc1CCC2` [Compound 26, 1-(6,7-dihydro-5H-benzo[6,7]cyclohepta[1,2-c]pyridazin-3-yl)-N^3-(7-cyclopentyl-6,7,8,9-tetrahydro-5H-pyrido[3,2-d]azepin-3-yl)-1H-1,2,4-triazole-3,5-diamine], the half-inhibitory concentration (IC50) lay in the range of 1000 to 10000 nM.
Same read-out and setting: in the case of `Nc1nc(Nc2ccc(C(=O)N3CCC(N4CCCC4)CC3)cc2)nn1-c1cc2c(nn1)-c1ccccc1CCC2` [Compound 22, 1-(6,7-dihydro-5H-benzo[6,7]cyclohepta[1,2-c]pyridazin-3-yl)-N^3-(4-((4-(pyrrolidin-1-yl)piperidin-1-yl)carbonyl)phenyl)-1H-1,2,4-triazole-3,5-diamine] it was less than 1000 nM; in that of `Nc1nc(Nc2ccc(C(=O)N3CCN(C4CCCC4)CC3)cc2)nn1-c1cc2c(nn1)-c1ccccc1CCC2` [Compound 10, 1-(6,7-dihydro-5H-benzo[6,7]cyclohepta[1,2-c]pyridazin-3-yl)-N^3-(4-(4-(cyclopentyl)piperazin-1-ylcarbonyl)phenyl)-1H-1,2,4-triazole-3,5-diamine], 1000 to 10000 nM; in that of `CN(C)CCNC(=O)c1ccc(Nc2nc(N)n(-c3cc4c(nn3)-c3ccccc3CCC4)n2)cc1` [Compound 19, 1-(6,7-dihydro-5H-benzo[6,7]cyclohepta[1,2-c]pyridazin-3-yl)-N^3-(4-((2-(dimethylamino)ethyl)-aminocarbonyl)phenyl)-1H-1,2,4-triazole-3,5-diamine], 1000 to 10000 nM.
On the same count and under the same terms, in the case of `Nc1nc(Nc2ccc(N3CCC(N4CCCC4)CC3)c(F)c2)nn1-c1cc2c(nn1)-c1ccccc1OCC2` [Compound 117, 1-(6,7-dihydro-5H-benzo[2,3]oxepino[4,5-c]pyridazin-3-yl)-N^3-(3-fluoro-4-(4-pyrrolidin-1-ylpiperidinyl)phenyl)-1H-1,2,4-triazole-3,5-diamine] it was less than 1000 nM; in that of `Nc1nc(Nc2ccc(OCCN3CCCC3)c(F)c2)nn1-c1cc2c(nn1)-c1ccccc1CCC2` [Compound 48, 1-(6,7-dihydro-5H-benzo[6,7]cyclohepta[1,2-c]pyridazin-3-yl)-N^3-(3-fluoro-4-(2-(pyrrolidin-1-yl)ethoxy)phenyl)-1H-1,2,4-triazole-3,5-diamine], 1000 to 10000 nM.
Turning to `Nc1nc(Nc2ccc(N3CCC(N4CCCC4)CC3)c(C(F)(F)F)c2)nn1-c1cc2c(nn1)-c1ccccc1CCC2` [Compound 63, 1-(6,7-dihydro-5H-benzo[6,7]cyclohepta[1,2-c]pyridazin-3-yl)-N^3-(3-trifluoromethyl-4-(4-pyrrolidin-1-yl-piperidin-1-yl)phenyl)-1H-1,2,4-triazole-3,5-diamine], the IC50 lay within 1000 to 10000 nM.

Still in this experiment, the particulars now being: Hela cells, phospho-Akt chemiluminescence normalized to relative cell number; compounds of formula (Ib), Table 2; read-out: IC50.
In the case of `Nc1nc(Nc2ccc(CC3C(=O)Nc4ccc(F)cc43)cc2)n(-c2cc3c(nn2)-c2ccccc2CCC3)n1` (stereo not shown) [Compound 163, 1-(6,7-dihydro-5H-benzo[6,7]cyclohepta[1,2-c]pyridazin-3-yl)-N^5-(4-((5-fluoroindolin-2-on-3-yl)methyl)phenyl)-1H-1,2,4-triazole-3,5-diamine], the concentration for half-maximal inhibition (IC50) was greater than 20000 nM.
As to `CN1CCN(c2ccc(Nc3nc(N)nn3-c3cc4c(nn3)-c3ccccc3CCC4)cc2F)CC1` [Compound 242, 1-(6,7-dihydro-5H-benzo[6,7]cyclohepta[1,2-c]pyridazin-3-yl)-N^5-(3-fluoro-4-(4-methylpiperazin-1-yl)phenyl)-1H-1,2,4-triazole-3,5-diamine], the IC50 was in the range of 1000 to 10000 nM.

Staying with this experiment, now noted: inhibition of Axl activity; Table 1, compounds of formula (Ia); read-out: IC50.
Take `Nc1nc(Nc2ccc(N3CCN4CCCCC4C3)c(F)c2)nn1-c1cc2c(nn1)-c1ccccc1SCC2` (stereo not shown) [Compound 129, 1-(6,7-dihydro-5H-benzo[2,3]thiepino[4,5-c]pyridazin-3-yl)-N^3-(3-fluoro-4-(octahydro-1H-pyrido[1,2-a]pyrazin-2-yl)phenyl)-1H-1,2,4-triazole-3,5-diamine]: the IC50 was less than 1000 nM.
On the same count and under the same terms, then `Nc1nc(Nc2cnc(N3CCC(N4CCCC4)CC3)nc2)nn1-c1cc2c(nn1)-c1ccccc1CCC2` [Compound 147, 1-(6,7-dihydro-5H-benzo[6,7]cyclohepta[1,2-c]pyridazin-3-yl)-N^3-(2-(4-pyrrolidin-1-ylpiperidin-1-yl)pyrimidin-5-yl)-1H-1,2,4-triazole-3,5-diamine], with less than 1000 nM.
On the same count and under the same terms, in the case of `Nc1nc(Nc2ccc3c(c2)CCC(NC2CC2)CC3)nn1-c1cc2c(nn1)-c1ccccc1CCC2` (stereo not shown) [Compound 225, 1-(6,7-dihydro-5H-benzo[6,7]cyclohepta[1,2-c]pyridazin-3-yl)-N^3-(7-cyclopropylamino-6,7,8,9-tetrahydro-5H-benzo[7]annulene-2-yl)-1H-1,2,4-triazole-3,5-diamine] it was less than 1000 nM; in that of `Cc1csc2c(-n3nc(Nc4cnc5c(c4)CCC4(CC5)OCCO4)nc3N)nc(Cl)nc12` [Compound 241, 1-(2-chloro-7-methylthieno[3,2-d]pyrimidin-4-yl)-N^3-(5,6,8,9-tetrahydrospiro[cyclohepta[b]pyridine-7,2′-[1,3]dioxolane]-3-yl)-1H-1,2,4-triazole-3,5-diamine], less than 1000 nM; in that of `CN1CCN(C2CCN(C/C=C/c3ccc(Nc4nc(N)n(-c5cc6c(nn5)-c5ccccc5CCC6)n4)cn3)CC2)CC1` [Compound 135, 1-(6,7-dihydro-5H-benzo[6,7]cyclohepta[1,2-c]pyridazin-3-yl)-N^3-(6-(3-(4-(N-methylpiperazin-4-yl)piperidin-1-yl)-(E)-propenyl)pyridin-3-yl)-1H-1,2,4-triazole-3,5-diamine], less than 1000 nM.
On the same count and under the same terms, in the case of `CCN(CC)CC1CCCN1c1ccc(Nc2nc(N)n(-c3cc4c(nn3)-c3ccccc3CCC4)n2)cn1` (stereo not shown) [Compound 130, 1-(6,7-dihydro-5H-benzo[6,7]cyclohepta[1,2-c]pyridazin-3-yl)-N^3-(6-(2-diethylaminomethyl)pyrrolidin-1-ylpyridin-3-yl)-1H-1,2,4-triazole-3,5-diamine] it was 1000 to 10000 nM; in that of `Nc1nc(Nc2ccc(C=CCN3CCCC3)cc2)nn1-c1cc2c(nn1)-c1ccccc1CCC2` [Compound 199, 1-(6,7-dihydro-5H-benzo[6,7]cyclohepta[1,2-c]pyridazin-3-yl)-N^3-(4-(pyrrolidin-1-ylprop-1-enyl)phenyl)-1H-1,2,4-triazole-3,5-diamine], less than 1000 nM.
`Nc1nc(Nc2ccc(C=CCN3CCCCC3)cc2)nn1-c1cc2c(nn1)-c1ccccc1CCC2` [Compound 198, 1-(6,7-dihydro-5H-benzo[6,7]cyclohepta[1,2-c]pyridazin-3-yl)-N^3-(4-(piperidin-1-ylprop-1-enyl)phenyl)-1H-1,2,4-triazole-3,5-diamine]: the IC50 is less than 1000 nM.
The same measure, in the same setting: then `CN(C)CCNC1CCc2ccc(Nc3nc(N)n(-c4cc5c(nn4)-c4ccccc4CCC5)n3)cc2CC1` (stereo not shown) [Compound 235], with less than 1000 nM; and `Nc1nc(Nc2ccc3c(c2)CCC(N)CC3)nn1-c1cc2c(nn1)-c1ccccc1CCC2` (stereo not shown) [Compound 234, 1-(6,7-dihydro-5H-benzo[6,7]cyclohepta[1,2-c]pyridazin-3-yl)-N^3-(7-amino-6,7,8,9-tetrahydro-5H-benzo[7]annulene-2-yl)-1H-1,2,4-triazole-3,5-diamine], with less than 1000 nM; and `Nc1nc(Nc2ccc(/C=C/CN3CCC(N4CCCC4)CC3)nc2)nn1-c1cc2c(nn1)-c1ccccc1CCC2` [Compound 141, 1-(6,7-dihydro-5H-benzo[6,7]cyclohepta[1,2-c]pyridazin-3-yl)-N^3-(6-(3-(4-(pyrrolidin-1-yl)piperidin-1-yl)-(E)-propenyl)pyridin-3-yl)-1H-1,2,4-triazole-3,5-diamine], with 1000 to 10000 nM.
